The values below come from US11951269B2, “Drug-coated medical devices” (Medtronic Vascular, Inc., priority 2018, dated 2024).

Series [1] is described as follows: Solubility of DEX in various solvents. In kind it is physicochemical.
A short description of series [2]: Ex-vivo model: coated balloon inflated against bovine carotid artery in simulated flow loop, drug by HPLC. Particulars: for tissue concentration average: bovine carotid artery ex vivo, n=5. As for the experimental part: The coated balloons were inflated against tissue in an ex-vivo model. Briefly, the model included a bovine carotid artery mounted in a simulated flow loop comprising appropriately sized tubing. The system was maintained at 37° C. A standard hemostasis valve and 8 Fr introducer sheath are used to introduce the coated balloon into the tubing, the balloon is tracked through the sheath and tubing into the bovine carotid artery, and the balloon is deployed (inflated to approximately 1.1 B.A.R. and held for 60 s) against the bovine carotid artery tissue. The tissue and balloon are removed for analysis. […] Briefly, the amount of drug was measured by using HPLC of extracted solutions from testing specimens, such as utilizing a solvent to solubilize and remove all remaining drug from the balloon for analysis.

Series [3] in a line: In vivo porcine model: coated balloon deployed in femoral arteries, drug concentration in tissue. The settings on record: for concentration at 1 day / concentration at 28 days: pig, femoral artery tissue, porcine femoral arteries, n=18, read-out: median concentration in the tissue; for concentration at 28 days: after 28 days; for vessels in which drug was detectable: porcine. The procedure:
In vivo studies are also performed. […] After 1 day, the median sirolimus concentration in the tissue is about 0.62 μg/g, and after 28 days the median concentration is about 0.07 μg/g (n=18).

As for `C[C@@H]1C[C@H]2[C@@H]3CCC4=CC(=O)C=C[C@]4(C)[C@@]3(F)[C@@H](O)C[C@]2(C)[C@@]1(O)C(=O)CO` [DEX, dexamethasone], the DEX solubility was 12 mg\mL in series [1] (solvent Acetone); 10 mg\mL in series [1] (solvent Acetonitrile); 8 mg\mL in series [1] (solvent Ethanol); 15 mg\mL in series [1] (solvent Methanol); 30 mg\mL in series [1] (solvent THF). For the same molecule, the tissue concentration average result in series [2] was “about 22.6 μg DEX/g of tissue”. Besides, the concentration at 1 day in series [3] (after 1 day) is about 0.525 ng/g. The concentration at 28 days in series [3] was about 0.5 ng/g. For the same molecule, the figures for the “vessels in which drug was detectable” value in series [3] (after 1 day) and in series [3] (day 28) were “four of six vessels” and “two of six vessels”, respectively.
Consider `CO[C@H]1C[C@@H]2CC[C@@H](C)[C@@](O)(O2)C(=O)C(=O)N2CCCC[C@H]2C(=O)O[C@H]([C@H](C)C[C@@H]2CC[C@@H](O)[C@H](OC)C2)CC(=O)[C@H](C)/C=C(\C)[C@@H](O)[C@@H](OC)C(=O)[C@H](C)C[C@H](C)/C=C/C=C/C=C/1C` [sirolimus], for which the tissue concentration average result in series [2] is given as “about 25.9 μg sirolimus/g of tissue”. Also, in series [2] (sirolimus/urea first layer, DEX/urea second layer, bovine carotid artery, 37° C., inflated 60 s), the “drug transferred to the tissue” value is listed as “About 1.7%”. Besides, the concentration at 1 day in series [3] (after 1 day) is about 620 ng/g. The concentration at 28 days in series [3] is about 70 ng/g.
